Reference: patent US6518012B1, “Method for regulating the expression of MHC antigens and CD40 by inhibitors of histone deacetylation” (Health Research, Inc., priority 1999, dated 2003)

How the values were obtained:
HLA-DRα mRNA = HLA-DRα mRNA by standard PCR and real-time PCR in human cell lines JAR and SK-N-MC; type: cell-based; settings: JAR; for fold increase in HLA-DRα (MHC class II) mRNA over the control: real time quantitative RT-PCR, 100 nM TSA, IFNγ 100 U/ml or combination for 12 hours, sodium butyrate (FIG. 2)
Procedure: To determine the effect of DAIs on HLA-DRα mRNA, cytoplasmic RNA was isolated from untreated and treated human trophoblast cell line JAR using standard techniques (RNeasy System from Qiagen). Standard PCR was performed using primers for DR and CIITA (Murphy et al., 1998, Reprod Dev., Chin et al., 1994, Immunity 1:687-697). Other primers used included human and mouse GAPDH (Clontech) and forward primer 5′-[…]-3′ (SEQ ID NO:25) and reverse primer 5′-[…]-3′ (SEQ ID NO:26) for mouse CIITA. PCR products were amplified with GOLD Taq for 10 min at 95° C., then 95° C. for 30 sec, 60° C. for 60 sec (25-45 cycles), then an extension at 60° C. for 10 min.
Oligonucleotide primers and TaqMan 5′-6-FAM and 3′-TAMRA-labeled probes were synthesized in the RPCI Biopolymer Facility. Primer and probe sequences are listed under Sequence Listing and also in FIG. 9. Sequences were designed using standard software (PrimerExpress software, PE Biosystems) except for human GAPDH.
Realtime PCR reactions contained TaqMan Universal PCR Master Mix (PE Biosystems), primers at 300 nM, and probes at optimal concentrations (150-225 nM depending on gene). Reactions were carried out on an ABI PRISM 7700 Sequence Detection System (PE Biosystems). Cycling conditions were 50° C. for 2 min, 95° C. for 10 min, then 60 cycles of 95° C. for 15 sec, 60° C. for 1 min. PCR samples were run in triplicate. The detection system and quantitative PCR was carried out as described by Williamson et al. (1995, Genet Res. 65:83-93). The threshold cycle number CT corresponded to the cycle number, at which the fluorescent emission reaches 10 standard deviations above the mean fluorescent emission, measured during the early ‘baseline’ cycles of the PCR. The CT values for triplicates were averaged and normalized to GAPDH levels. […] Assuming reverse transcription efficiencies were approximately the same for each sample, relative amounts of mRNA using the comparative CT method. Fold changes in mRNA levels were calculated as 2^x where x=the difference between normalized CT values of the control and experimental samples.
To evaluate the effects of DAIs on human cells, the human trophoblast cell line was treated with 100 nM Trichostatin A (TSA), IFNγ (100 U/ml) or a combination of TSA and IFNγ for 12 hours. RNA was isolated and real time quantitative RT-PCR was carried out. The fold increase in mRNA over the control was calculated.

[1] = system: MHC class II protein on the cell surface; experiment: Cell surface MHC class II protein by flow cytometry on Colon 26 and J558; type: cell-based, mouse; settings: for expression of MHC class II protein on the cell surface: Colon 26 (50 nM TSA 48 hours) and J558 (25 nM TSA 24 hours), flow cytometry, IFNγ 100 U/ml same time
Procedure: To determine the effect of TSA on cell surface protein expression, the J558 cell line was subjected to flow cytometric analyses as follows. Flow cytometric analyses were conducted by standard methods using cells fixed with 1.0% paraformaldehyde and analyzed on the FACScan (Becton Dickinson). Cell cycle analyses were carried out by flow cytometry with PI staining of genomic DNA. Cells were fixed and permeablized in methanol, treated with RNaseA and analyzed for DNA content by determination of FL3-area on the FACScan. The FL3-area data were analyzed with the ModFit software for determination of the percent cells in each phase of the cell cycle. In some cases, fluorescein isothiocyanate (FITC)-conjugated antibody staining was conducted prior to PI treatment and surface staining was analyzed as a function of cell cycle phase. Apoptosis was analyzed by staining with annexin-V directly conjugated with either FITC or RPE and by sub-G0 analysis of DNA staining. Expression levels without treatment are shown as shaded peaks, IFNγ treated cell expression is plotted by a thin line while the level of expression on TSA treated cells is represented by a heavy line. Isotype controls were analyzed and, in each case, fell on or below the levels shown for control cells. MC and Colon 26 treatments are shown for 50 nM TSA for 48 hours, while J558 treatment is for 25 nM TSA for 24 hours. All IFNγ treatments were 100 U/ml for the same length of time as the corresponding TSA treatment. The percent of cells staining positive for MHC class II or CD40 expression is indicated below each histogram. Since all cells were positive for MHC class I expression, the number under the histogram represents -fold change of expression calculated from the mean channel-shift after treatment relative to untreated cells. Data are representative of at least three independent experiments. Of the 13 markers analyzed on J558 cells, only class I, II and CD40 were enhanced, while levels of several non-expressed antigens were not elicited (including CD25, B7 integrin, CD40L, H2K^k and IA^k) while other markers, which were expressed, were not altered (including CD44, CD54, CD80, CD86 and CD119) by TSA treatment. […] The highest expression (21-fold induction) was achieved on J558 cells after 24 hr by 25 nM TSA. […] The separation of control and IFNγ curves in the CD40, J558 experiment depicted in FIG. 8 represents a mean channel fluorescence difference of only 1.3 and was not seen on independent replicates of the experiment.
TSA has been described as a cell cycle inhibitor that induces both G1 and especially G2/M blocks (Bestor, 1998, Nature, 393:311-312; Yoshida et al., 1988, Exp. Cell Res. 177:122-131). MHC class II, but not class I, has been reported (Inokoshi et al., 1999, Biochem. Biophys. Res. Commun., 256:372-376; Monroe et al., 1983, J. Immunol., 130:626-631) to be regulated differentially during the cell cycle. Therefore the cell cycle of the cell lines used in the present invention was analyzed by DNA staining and flow cytometry with each of the treatment conditions under study. […] Two additional methods were used to analyze cell cycle effects on MHC expression. Since it has been reported that TSA arrests cell cycle mainly in G2/M, and class II has been reported to accumulate in G2/M (Monroe et al., 1983, supra), experiments were designed to essentially arrest 100% of J558 cells in G2/M with nocodazole. […] From the above experiments, it can be concluded that DAIs have specific effects on MHC class I and II, and CD40 gene expression, which is likely not a result of its action on the cell cycle.

| Compound | fold increase in HLA-DRα (MHC class II) mRNA over the control (HLA-DRα mRNA) | expression of MHC class II protein on the cell surface [1] | levels of mRNA for DR (HLA-DRα mRNA; standard PCR, 100 nM or 250 nM TSA or 1 mM sodium butyrate) | cells positive for class II expression ([1]; Colon 26, TSA concentration used in FIG. 8 (50 nM for 48 hours)) [%] | MHC class II positive cells ([1]; J558, G2/M arrest experiment with nocodazole, data not shown) [%] | cells positive for class II expression ([1]; J558, TSA concentration used in FIG. 8 (25 nM for 24 hours)) [%] | induction of cell surface MHC class II, mean channel fluorescence ([1]; J558 cells, 24 hr, 25 nM TSA, highest expression) [fold] |
| --- | --- | --- | --- | --- | --- | --- | --- |
| IFNγ: gamma-interferon, cytokine used as comparator at 100 U/ml | did not induce | did not induce |  |  |  |  |  |
| CC(/C=C/C(=O)NO)=C\[C@@H](C)C(=O)c1ccc(N(C)C)cc1 [TSA, Trichostatin A] | 15 fold | significantly induced | substantial increase | 53 | 75 | 87 | 21 |
